The values that follow come from US11903908B2, “Methods of administering amantadine” (Adamas Pharma, LLC, priority 2013, dated 2024).

Structures can show the parent of a compound that is named as a salt. Where two headings read alike, the source gives them in different places.

For data set [1], the system named is subjects with Parkinson's Disease (PD) who have levodopa-induced dyskinesia (LID). Nature of the data set: Randomized, double-blind, placebo-controlled study of Amantadine ER capsules for levodopa-induced dyskinesia in Parkinson's Disease (Example 5).
Source text: Study Objectives: This study was designed to evaluate the efficacy of three dose levels of Amantadine Extended Release (ER) oral capsules dosed once nightly at nighttime for the treatment of levodopa-induced dyskinesia (LID) in subjects with Parkinson's Disease (PD). […] Study design: This was a multi-center, randomized, double-blind, placebo-controlled, 4-arm parallel group study of Amantadine ER in subjects with PD who have LID.
Subjects who were randomized to Treatment C received, in double-blind fashion, 260 mg Amantadine ER once nightly during week 1, with an increase to 340 mg once nightly at the beginning of week 2. Subjects who were randomized to Treatment D, in double-blind fashion, 260 mg Amantadine ER once nightly during week 1, with an increase to 340 mg Amantadine ER once nightly during week 2, with a further increase to 420 mg once nightly at the beginning of week 3. Dosing for all groups continued at the nominal dose through week 8.
Following completion of the baseline visit and randomization, subjects returned to the clinic after 1, 2, 4, 6, and 8 weeks of dosing, with a follow-up visit 14 days following the last dose of study drug. Study visits and assessments were scheduled during the hours between 10 am through 4 pm. A set of two 24-hour diaries were be completed during 48 hours prior to randomization and 48 hours prior to selected study visits. The diary was used to score five different conditions in 30-minute intervals: Sleep, OFF, ON without dyskinesias, ON with nontroublesome dyskinesias, ON with troublesome dyskinesias.
Blood samples were collected at selected study visits for determination of amantadine plasma concentrations, and evaluation of steady-state population pharmacokinetics. Subject participation during the study was up to 12 weeks including a 2-week (maximum) screening period, 8-week (maximum) treatment period, and a 2-week follow-up period. Subjects unable to tolerate their assigned study drug assignment permanently discontinued study drug and continued to be followed for safety through 2 weeks following the last dose of study drug. […]
Data set [2] relates to PD patients with levodopa-induced dyskinesia (LID). The note with it: cited from earlier work.
Where [3] appears, read: amantadine IR 200 mg/day, PD patients.

`NC12CC3CC(CC(C3)C1)C2` [amantadine, Amantadine HCl]: the discontinuation rates entry in data set [1] (420 mg once nightly) is listed as “higher discontinuation rates”. The “frequency of side effects” value in data set [1] (420 mg once nightly) was “comparable frequency of side effects”. The tolerability result in data set [1] (260-420 mg once nightly, Parkinson's disease patients) is on record as “well tolerated”; in data set [2] (setting [3]), “generally tolerated by the majority of PD patients”. Besides, the “reduction in LID” value in data set [2] (setting [3]) was “approximately 25%”. Also, the CNS side effects entry in data set [2] (amantadine IR 300 mg/day or higher) is “associated with central nervous system (CNS) side effects”. Further, the “reduction of LID” value in data set [2] (amantadine IR 300 mg/day, PD patients) is approximately 40%; in data set [2] (amantadine IR 300 to 400 mg/day, one study), approximately 60%. The “effect on motor fluctuations (ON/OFF)” value in data set [2] (later stages of PD) is recorded as “no effect”.
